# How the values were obtained:
# [1] = system: MDA-MB-231 human breast cancer cells; test: Single-cell FDG uptake at a fixed time-point, radioluminescence and fluorescence microscopy; type: cell-based; conditions: glucose-deprived 1 hour
# Description: In this illustration, the common radiotracer [^18F]fluorodeoxyglucose (FDG) was used. […] The radioluminescence microscopy set-up consisted of cells adhering to a 100 μm-thin CdWO4 scintillator plate that was immersed in a glass-bottom dish filled with cell culture medium as shown schematically in FIG. 2. The dish was imaged using an inverted microscope fitted with a high-NA objective and an electron-multiplying charge-coupled device (EM-CCD).
# Brightfield images were acquired with no EM gain, a neutral-density filter on the excitation, and the emission shutter open. […] The brightfield mode was used to set the microscope into focus. […] For fluorescence microscopy, a 460 nm/535 nm filter set for 2-NBDG imaging (Chroma, D460/50x and D535/40m) and a 540 nm/600 nm filter set for RFP imaging (Chroma, HQ540/40x and HQ600/50m) were used.
# One side of the scintillator plate was coated with fibronectin (10 μg/ml) to allow the cells to attach. After the plate had dried, the cells were seeded by placing a 50 μl drop containing 10^4 cells on to the fibronectin-coated plate.
# After washing the cells, brightfield, radioluminescence and fluorescence micrographs were acquired.
# To measure radiotracer uptake in single cells, circular regions of interest (ROI's; diameter, 24 μm) were manually placed on the cells using the brightfield micrograph. […] The same procedure was also applied to fluorescence micrographs.
# HeLa cells = test: Radioluminescence microscopy of FDG uptake in HeLa cells on scintillator plate; type: cell-based; conditions: HeLa cells fasted 2 h, 400 μCi FDG 20 min 37° C., 20 minute exposure
# Procedure: To visualize the uptake of radiotracer at the microscopic level, cells were cultured directly on a scintillating plate made of a material that converts incident beta radiation into optical photons via radioluminescence. In these experiments, scintillation plates were used with dimensions 10 mm×10 mm×0.5 mm that were made of CdWO4, a dense, high-Z, non-hygroscopic material, with both sides polished to allow for concurrent optical imaging (MTI Corp.). In one experiment, HeLa cells were seeded and cultured on the scintillating plate, immersed in cell culture medium (Dulbecco's Modified Eagle Medium containing 10% fetal calf serum) for 12-18 hours. After the cells had adhered to the surface of the scintillator plate and divided adequately, they were fasted for two hours in glucose-free cell medium and incubated for 20 minutes at 37° C. with 400 μCi of ^18F-fluorodeoxyglucose (FDG). […]
# Radioluminescence images were taken with an EM gain of 251/1200, the excitation shutter closed, and the emission shutter open. […] Then, in luminescence mode, the image sharpness was optimized by varying the focal distance while acquiring 5 minute-exposure images. […]
# [2] = system: breast cancer cells (MDA-MB-231); test: Single-cell FDG uptake and efflux over time (pharmacokinetic study), serial radioluminescence imaging; type: cell-based, human
# Procedure: To investigate the utility of radioluminescence microscopy for single-cell pharmacokinetic studies, FDG uptake, FDG efflux and FDG withdrawal conditions were analyzed. FDG uptake in breast cancer cells (MDA-MB-231) over time was monitored by depriving cells of glucose for 1 hour and then adding 5 μCi of FDG to the medium. Serial brightfield and radioluminescence images were acquired every 6 minutes for a period of 8 hours.
# To monitor FDG efflux, breast cancer cells (MDA-MB-231) were subjected to conditions known to minimize FDG influx, i.e. thorough competition from glucose and withdrawal of FDG.
# The influx of FDG into glucose-deprived cells was described using the following two-tissue compartmental kinetic model:
# where Ca is the extracellular FDG concentration (assumed to be fixed); C(t) is the time-dependent intracellular FDG concentration (including free FDG and bound FDG-6-P); and K1, k2 and k3 are the rate constants representing influx, efflux, and irreversible phosphorylation of FDG, respectively. Fort>>1/(k2+k3, the intracellular and extracellular compartments are in equilibrium, and the intracellular concentration of FDG increases linearly with time due to irreversible trapping of FDG. The parameters of this linear rise (i.e. slope and intercept) are the Patlak coefficients. The slope of the linear rise is the product of two terms, namely K1 the influx rate, and k3/(k2+k3) is the fraction of the intracellular FDG irreversibly metabolized. A non-linear weighted least-squares fitting was used to estimate the parameters of the model. The fitting weights were adjusted to decrease the contribution of later time points, which have higher noise due to radioactive decay.
# A mathematical model was also derived to represent FDG efflux from a cell. The model assumed that (1) following withdrawal of FDG, the concentration of FDG in the cell culture medium remained negligible due to the large extracellular volume (0.2 ml), and (2) k3>>k4. Under these assumptions, FDG concentration within a single cell can be described by the sum of a slow and a fast exponential decay.
# Efflux of FDG from cells was modeled using a two-tissue compartmental model:
# where a1 and a2 are positive coefficients that depend on the initial conditions, and λ1 and λ2 are the eigenvalues of the differential system of equations describing transport of FDG between compartments. The rate constant k4 which models the possible dephosphorylation of FDG-6-phosphate (FDG-6-P) was included in this model but assumed to be much smaller than k3. Furthermore, due to the large extracellular volume (0.2 ml), the concentration of FDG in the cell culture medium was assumed to remain negligible after withdrawal of FDG. Under these assumptions, the eigenvalues can be approximated as
# These rate parameters were estimated by fitting the efflux model to the measured time-activity curves. For cells for which the solution of the fit yielded λ1≈λ2 or λ2<1 min^−1, the efflux curve was fitted with a single exponential function. In the special case of irreversible trapping (k4=0), the model is described by a single exponential decay with rate: λ1=k2+k3. The model was in agreement with radioluminescence measurements of single cells, confirming that two processes are occurring concurrently at different rates. Unbound FDG contained within the cell quickly diffuses out following concentration gradients, whereas FDG-6-phosphate (FDG-6-P) requires slow dephosphorylation to cross the cell membrane.
# wild-type HeLa cells = test: FHBG uptake in wild-type HeLa cells, radioluminescence microscopy; type: cell-based, human; conditions: FHBG 300 μCi, 2 h
# Description: Generally, radioluminescence signals for FHBG-positive and FHBG-negative cells were more distinctly separated than fluorescence signals for RFP-positive and RFP-negative cells.
# [3] = system: HSV1-TK (Human herpesvirus 1); conditions: background statement; cited from earlier work
# Sequence of HSV1-TK (Human herpesvirus 1) (P0DTH5 whole entry): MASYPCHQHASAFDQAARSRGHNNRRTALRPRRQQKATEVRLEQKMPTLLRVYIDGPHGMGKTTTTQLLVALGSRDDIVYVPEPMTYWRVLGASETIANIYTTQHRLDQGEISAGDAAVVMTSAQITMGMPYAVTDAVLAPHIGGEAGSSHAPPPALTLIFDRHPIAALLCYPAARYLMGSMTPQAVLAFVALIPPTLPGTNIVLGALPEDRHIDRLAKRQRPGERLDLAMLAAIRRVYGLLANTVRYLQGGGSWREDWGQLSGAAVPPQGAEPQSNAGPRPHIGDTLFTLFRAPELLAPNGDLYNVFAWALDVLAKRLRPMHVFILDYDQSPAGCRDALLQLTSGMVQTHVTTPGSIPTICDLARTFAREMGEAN
# [4] = system: HeLa cells transduced with HSV1-ttk; test: FHBG accumulation in HeLa cells transduced with mrfp1/HSV1-ttk reporter, radioluminescence and fluorescence microscopy; type: cell-based, human; conditions: 300 μCi 18F-FHBG 2 hours
# Description: To further exploit the microscope's ability to visualize both fluorescent and radioactive probe distributions, human cervical cancer cells (HeLa) were transduced with a dual fusion reporter vector, comprising reporter genes encoding the monomeric red fluorescent protein (mrfp1) and the mutant herpes simplex virus type 1 truncated thymidine kinase (HSV1-ttk). HSV1-ttk can selectively metabolize and trap radiolabeled substrates such as FHBG. Substrates such as 9-(4-[^18F]Fluoro-3hydroxymethylbutyl) guanine (^18F-FHBG) have low affinity for mammalian thymidine kinase (TK) enzymes but high affinity for HSV1-TK. FHBG is selectively metabolized and trapped within transduced cells so it can be used to image cell trafficking in living subjects with PET.
# PCR amplification and standard cloning techniques were used to insert the mrfp and ttk genes from plasmid pCONA3.1-CMV-hrl-mrfp-ttk. Lentiviral EF1-gfp vectors were obtained and the gfp fragment was removed from the vector and replaced by mrfp-ttk. For PCR amplifications, different 5′ and 3′ end primers were used to generate the fusion vector (EF1-mrfp-ttk).
# HeLa human cervical cancer and 293T human embryonic kidney cells were acquired and cultured in high-glucose Dulbecco's modified eagle medium supplemented with 10% fetal bovine serum. 293T cells were used to produce the lentivirus following standard procedures. HeLa cells were transduced with concentrated lentivirus for 48 hours and then trypsinized and seeded directly onto a scintillator plate coated with fibronectin (10 μg/ml), one day before imaging.
# For imaging of cell transduction with FHBG and RFP, transduced HeLa cells were incubated for 2 hours with 300 μCi of ^18F-FHBG.
# In transduced cells, accumulation of FHBG was coincident with expression of mrfp1 measured by fluorescence microscopy. A brightfield image (FIG. 5A), a radioluminescence image (FIG. 5B) and a fluorescence image (FIG. 5C) were obtained from the same field. It was seen that 88% of the cells visible on the brightfield image (217/245) were clearly distinguishable both on radioluminescence (FIG. 5B) and fluorescence images (FIG. 5C), while only 9% (21/245) could not be seen on either image. The remaining 7 cells were excluded from the analysis due to ambiguous radioluminescence intensity caused by the proximity to a strongly positive cell.
# [5] = system: mammalian thymidine kinase (TK) enzymes; conditions: background statement; cited from earlier work
Structure (SMILES),cell-to-cell variation of radioluminescence intensity (FDG uptake) ([1]; FDG 400 μCi 1 hour 37° C.),"correlation (r) of FDG uptake with uptake of 2-NBDG in single cells ([1]; FDG 400 μCi + 2-NBDG 100 μM 1 hour 37° C., P<10^−5)",colocalization between cell outline (brightfield) and radioluminescence intensity (HeLa cells),"cell radioactivity after withdrawal of FDG from the media ([2]; cells previously incubated with FDG 400 μCi, 1 hour)",cell radioactivity after addition of glucose to the medium ([2]; glucose 25 mM added at 2 hours),"time at which the majority of cells stopped accumulating FDG ([2]; glucose-deprived 1 hour, 5 μCi FDG in medium)","time course of cell radioactivity (FDG uptake) ([2]; glucose-deprived 1 hour, 5 μCi FDG, images every 6 minutes for 8 hours)",variation of Patlak coefficients across cells ([2]; two-tissue compartmental kinetic model of FDG influx),radioluminescence signal in wild-type HeLa cells (wild-type HeLa cells),affinity for HSV1-TK [3],radiotracer uptake pattern in transduced cells ([4]; 100× magnification),cells that could not be seen on either radioluminescence or fluorescence image ([4]; 21/245 cells),cells visible on brightfield clearly distinguishable both on radioluminescence and fluorescence images ([4]; 217/245 cells),correlation (r) of RFP fluorescence intensity with FHBG radioluminescence intensity ([4]; transduced HeLa cells),affinity for mammalian thymidine kinase (TK) enzymes [5]
"OC[C@H]1OC(O)[C@H]([18F])[C@@H](O)[C@@H]1O (stereo partly drawn) [FDG, ^18F-fluorodeoxyglucose]",varied significantly from cell to cell,0.74,good colocalization,fast decrease in cell radioactivity,decline in cell radioactivity,approximately 3 hours,"linear increase in radioactivity, followed by a plateau and a slow decrease after 3 hours",Large variations,,,,,,,
"Nc1nc2c(ncn2CCC(CO)C[18F])c(=O)[nH]1 (stereo not drawn) [FHBG, 9-(4-[^18F]-fluoro-3-hydroxy-methylbutyl) guanine]",,,,,,,,,no measurable radioluminescence signal,high affinity,focal radiotracer uptake,9%,88%,0.34,low affinity

# Source: patent US20140242600A1, “IMAGING THE HETEROGENEOUS UPTAKE OF RADIOLABELED MOLECULES IN SINGLE LIVING CELLS” (priority 2011, published 2014)
